Tests used:
Assay in all cases: biochemical
Set-up in all cases: KinomeScan competition binding panel (DiscoveRx), percent of control at 1 uM
Details in all cases: read-out: Percent Control
[1] = molecular target: T1, ADCK4 (Homo sapiens, UniProt Q96D53)
T1 construct: gene COQ8B
How it was run: (§1)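 KinomeScan technology used to profile binding across a panel of 456 kinases and mutants.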

[2] = molecular target: AURKB (Homo sapiens, UniProt Q96GD4)
How it was run: as §1

[3] = molecular target: AXL (Homo sapiens, UniProt P30530)
How it was run: as §1

[4] = molecular target: T2, BIKE (Homo sapiens, UniProt Q9NSY1)
T2 construct: gene BMP2K
How it was run: as §1

[5] = molecular target: CLK4 (Homo sapiens, UniProt Q9HAZ1)
How it was run: as §1

[6] = molecular target: CSNK1G3 (Homo sapiens, UniProt Q9Y6M4)
How it was run: as §1

[7] = molecular target: EPHB4 (Homo sapiens, UniProt P54760)
How it was run: as §1

[8] = molecular target: FGR (Homo sapiens, UniProt P09769)
How it was run: as §1

[9] = molecular target: HUNK (Homo sapiens, UniProt P57058)
How it was run: as §1

[10] = molecular target: IRAK4 (Homo sapiens, UniProt Q9NWZ3)
How it was run: as §1

[11] = molecular target: T3, JNK3 (Homo sapiens, UniProt P53779)
T3 construct: gene MAPK10
T3 sequence (P53779 whole entry): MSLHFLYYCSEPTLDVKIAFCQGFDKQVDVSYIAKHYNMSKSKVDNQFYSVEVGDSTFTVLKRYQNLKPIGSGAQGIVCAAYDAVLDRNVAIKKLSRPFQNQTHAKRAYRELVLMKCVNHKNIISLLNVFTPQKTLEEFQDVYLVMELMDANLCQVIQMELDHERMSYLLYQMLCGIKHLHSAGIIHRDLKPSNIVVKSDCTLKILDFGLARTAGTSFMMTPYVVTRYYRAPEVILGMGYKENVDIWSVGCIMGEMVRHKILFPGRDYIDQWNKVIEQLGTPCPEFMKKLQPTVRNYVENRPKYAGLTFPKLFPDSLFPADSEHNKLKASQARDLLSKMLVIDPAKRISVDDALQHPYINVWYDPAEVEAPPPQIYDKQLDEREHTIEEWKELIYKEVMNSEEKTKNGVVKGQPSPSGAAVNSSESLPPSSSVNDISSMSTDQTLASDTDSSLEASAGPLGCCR
How it was run: as §1

[12] = molecular target: MAP3K15 (Homo sapiens, UniProt Q6ZN16)
MAP3K15, sequence (Q6ZN16 whole entry): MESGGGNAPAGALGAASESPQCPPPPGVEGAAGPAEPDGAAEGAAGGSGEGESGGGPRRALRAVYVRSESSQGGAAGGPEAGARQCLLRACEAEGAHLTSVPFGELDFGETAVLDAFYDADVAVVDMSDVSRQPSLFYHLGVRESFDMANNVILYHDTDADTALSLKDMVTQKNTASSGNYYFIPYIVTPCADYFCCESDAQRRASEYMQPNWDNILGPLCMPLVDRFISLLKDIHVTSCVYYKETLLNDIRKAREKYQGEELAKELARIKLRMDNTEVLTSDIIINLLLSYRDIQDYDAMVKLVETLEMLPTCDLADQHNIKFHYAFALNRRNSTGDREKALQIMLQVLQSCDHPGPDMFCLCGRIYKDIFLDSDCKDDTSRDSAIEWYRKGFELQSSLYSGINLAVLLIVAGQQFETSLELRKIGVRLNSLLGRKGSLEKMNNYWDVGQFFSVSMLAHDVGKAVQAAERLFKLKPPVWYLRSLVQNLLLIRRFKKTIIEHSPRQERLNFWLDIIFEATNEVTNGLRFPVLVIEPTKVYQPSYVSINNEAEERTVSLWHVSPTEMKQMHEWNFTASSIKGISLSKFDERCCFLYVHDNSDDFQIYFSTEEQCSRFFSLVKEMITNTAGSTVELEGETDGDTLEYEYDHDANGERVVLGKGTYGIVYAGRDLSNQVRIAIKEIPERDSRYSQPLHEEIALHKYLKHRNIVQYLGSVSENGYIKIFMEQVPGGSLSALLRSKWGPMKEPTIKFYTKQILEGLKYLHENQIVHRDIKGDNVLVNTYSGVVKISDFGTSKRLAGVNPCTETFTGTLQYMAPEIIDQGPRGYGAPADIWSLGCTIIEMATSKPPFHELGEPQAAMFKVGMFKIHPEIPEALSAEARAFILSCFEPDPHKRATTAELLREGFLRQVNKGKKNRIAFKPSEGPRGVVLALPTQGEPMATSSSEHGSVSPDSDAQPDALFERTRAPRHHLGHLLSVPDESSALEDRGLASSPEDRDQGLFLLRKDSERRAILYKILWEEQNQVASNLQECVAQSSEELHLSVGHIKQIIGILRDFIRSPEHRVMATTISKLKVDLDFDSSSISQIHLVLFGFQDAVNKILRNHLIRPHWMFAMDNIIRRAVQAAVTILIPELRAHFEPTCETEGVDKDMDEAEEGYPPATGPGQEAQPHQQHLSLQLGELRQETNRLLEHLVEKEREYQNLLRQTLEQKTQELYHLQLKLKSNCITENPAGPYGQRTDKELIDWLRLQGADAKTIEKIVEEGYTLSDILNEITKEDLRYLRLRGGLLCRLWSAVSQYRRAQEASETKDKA
How it was run: as §1

[13] = molecular target: MAP3K3 (Homo sapiens, UniProt Q99759)
MAP3K3, sequence (Q99759 whole entry): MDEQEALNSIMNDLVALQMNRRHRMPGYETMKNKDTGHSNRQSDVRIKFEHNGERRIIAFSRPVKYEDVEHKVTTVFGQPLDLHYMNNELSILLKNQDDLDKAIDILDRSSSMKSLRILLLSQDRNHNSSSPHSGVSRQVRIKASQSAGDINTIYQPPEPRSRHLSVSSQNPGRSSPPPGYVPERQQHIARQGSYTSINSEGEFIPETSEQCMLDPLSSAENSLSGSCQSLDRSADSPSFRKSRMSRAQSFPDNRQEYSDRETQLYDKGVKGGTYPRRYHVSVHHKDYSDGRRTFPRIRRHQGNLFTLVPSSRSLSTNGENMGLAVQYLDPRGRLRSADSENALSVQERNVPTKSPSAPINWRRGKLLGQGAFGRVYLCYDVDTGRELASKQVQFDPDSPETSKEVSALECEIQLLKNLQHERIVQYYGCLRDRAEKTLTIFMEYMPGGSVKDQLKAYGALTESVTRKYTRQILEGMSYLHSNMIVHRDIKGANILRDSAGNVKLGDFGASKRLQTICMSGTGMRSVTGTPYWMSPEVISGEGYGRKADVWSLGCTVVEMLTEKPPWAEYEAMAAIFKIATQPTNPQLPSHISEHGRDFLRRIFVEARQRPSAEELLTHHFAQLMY
How it was run: as §1

[14] = molecular target: MAST1 (Homo sapiens, UniProt Q9Y2H9)
How it was run: as §1

[15] = molecular target: T4, MEK6 (Homo sapiens, UniProt P52564)
T4 construct: gene MAP2K6
How it was run: as §1

[16] = molecular target: T5, MINK (Homo sapiens, UniProt Q8N4C8)
T5 construct: gene MINK1
How it was run: as §1

[17] = molecular target: T6, MLK3 (Homo sapiens, UniProt Q16584)
T6 construct: gene MAP3K11
How it was run: as §1

[18] = molecular target: T7, MRCKA (Homo sapiens, UniProt Q5VT25)
T7 construct: gene CDC42BPA
T7 sequence (Q5VT25 whole entry): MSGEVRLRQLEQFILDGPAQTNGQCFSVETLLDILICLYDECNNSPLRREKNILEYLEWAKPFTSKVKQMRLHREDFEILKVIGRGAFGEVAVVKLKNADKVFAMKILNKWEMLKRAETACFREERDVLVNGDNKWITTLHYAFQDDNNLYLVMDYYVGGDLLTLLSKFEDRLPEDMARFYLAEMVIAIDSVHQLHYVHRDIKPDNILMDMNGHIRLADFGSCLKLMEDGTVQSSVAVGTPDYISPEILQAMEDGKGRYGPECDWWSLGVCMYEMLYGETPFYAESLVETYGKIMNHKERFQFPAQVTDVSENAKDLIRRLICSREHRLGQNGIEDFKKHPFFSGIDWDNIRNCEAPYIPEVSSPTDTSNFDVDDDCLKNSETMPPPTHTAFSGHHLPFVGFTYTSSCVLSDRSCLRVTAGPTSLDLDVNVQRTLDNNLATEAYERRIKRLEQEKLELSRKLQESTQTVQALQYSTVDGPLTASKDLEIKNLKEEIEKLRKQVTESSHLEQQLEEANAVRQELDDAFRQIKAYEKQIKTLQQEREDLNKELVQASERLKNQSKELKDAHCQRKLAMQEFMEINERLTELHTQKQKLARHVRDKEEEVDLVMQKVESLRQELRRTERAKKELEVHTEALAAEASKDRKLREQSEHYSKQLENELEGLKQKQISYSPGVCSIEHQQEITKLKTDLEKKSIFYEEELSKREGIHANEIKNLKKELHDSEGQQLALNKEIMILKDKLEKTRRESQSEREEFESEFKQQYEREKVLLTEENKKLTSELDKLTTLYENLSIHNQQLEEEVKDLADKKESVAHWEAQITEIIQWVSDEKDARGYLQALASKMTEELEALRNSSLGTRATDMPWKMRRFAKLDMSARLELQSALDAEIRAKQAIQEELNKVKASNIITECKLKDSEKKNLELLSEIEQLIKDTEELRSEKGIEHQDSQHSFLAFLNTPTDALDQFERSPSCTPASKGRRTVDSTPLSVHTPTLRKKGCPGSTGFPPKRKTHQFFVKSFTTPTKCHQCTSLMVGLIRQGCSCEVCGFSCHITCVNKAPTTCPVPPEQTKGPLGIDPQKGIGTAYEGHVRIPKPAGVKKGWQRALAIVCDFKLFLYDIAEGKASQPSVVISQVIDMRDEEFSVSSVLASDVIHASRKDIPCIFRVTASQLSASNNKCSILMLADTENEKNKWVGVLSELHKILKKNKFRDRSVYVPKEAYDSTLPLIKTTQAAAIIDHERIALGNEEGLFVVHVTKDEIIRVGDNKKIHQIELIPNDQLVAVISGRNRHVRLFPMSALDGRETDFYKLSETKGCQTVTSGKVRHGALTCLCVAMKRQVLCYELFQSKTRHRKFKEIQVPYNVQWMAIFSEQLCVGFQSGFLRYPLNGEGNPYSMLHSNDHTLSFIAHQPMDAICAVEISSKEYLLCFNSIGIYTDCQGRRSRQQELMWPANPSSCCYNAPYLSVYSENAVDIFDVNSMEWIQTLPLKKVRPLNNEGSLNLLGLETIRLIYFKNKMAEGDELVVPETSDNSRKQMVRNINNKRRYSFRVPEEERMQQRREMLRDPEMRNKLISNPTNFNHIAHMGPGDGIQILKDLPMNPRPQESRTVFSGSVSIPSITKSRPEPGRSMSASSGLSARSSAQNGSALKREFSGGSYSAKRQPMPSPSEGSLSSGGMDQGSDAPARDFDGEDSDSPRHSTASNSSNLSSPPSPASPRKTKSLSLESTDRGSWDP
How it was run: as §1

[19] = molecular target: T8, PCTK2 (Homo sapiens, UniProt Q00537)
T8 construct: gene CDK17
How it was run: as §1

[20] = molecular target: PIK3CA (Homo sapiens, UniProt P42336)
How it was run: as §1

[21] = molecular target: T9, PYK2 (Homo sapiens, UniProt Q14289)
T9 construct: gene PTK2B
How it was run: as §1

[22] = molecular target: RAF1 (Homo sapiens, UniProt P04049)
How it was run: as §1

[23] = molecular target: T10, RSK3(Kin.Dom.1-N-terminal) (Homo sapiens, UniProt Q15349)
T10 construct: gene RPS6KA2; Kin.Dom.1-N-terminal
How it was run: as §1

[24] = molecular target: SRPK2 (Homo sapiens, UniProt P78362)
SRPK2, sequence (P78362 whole entry): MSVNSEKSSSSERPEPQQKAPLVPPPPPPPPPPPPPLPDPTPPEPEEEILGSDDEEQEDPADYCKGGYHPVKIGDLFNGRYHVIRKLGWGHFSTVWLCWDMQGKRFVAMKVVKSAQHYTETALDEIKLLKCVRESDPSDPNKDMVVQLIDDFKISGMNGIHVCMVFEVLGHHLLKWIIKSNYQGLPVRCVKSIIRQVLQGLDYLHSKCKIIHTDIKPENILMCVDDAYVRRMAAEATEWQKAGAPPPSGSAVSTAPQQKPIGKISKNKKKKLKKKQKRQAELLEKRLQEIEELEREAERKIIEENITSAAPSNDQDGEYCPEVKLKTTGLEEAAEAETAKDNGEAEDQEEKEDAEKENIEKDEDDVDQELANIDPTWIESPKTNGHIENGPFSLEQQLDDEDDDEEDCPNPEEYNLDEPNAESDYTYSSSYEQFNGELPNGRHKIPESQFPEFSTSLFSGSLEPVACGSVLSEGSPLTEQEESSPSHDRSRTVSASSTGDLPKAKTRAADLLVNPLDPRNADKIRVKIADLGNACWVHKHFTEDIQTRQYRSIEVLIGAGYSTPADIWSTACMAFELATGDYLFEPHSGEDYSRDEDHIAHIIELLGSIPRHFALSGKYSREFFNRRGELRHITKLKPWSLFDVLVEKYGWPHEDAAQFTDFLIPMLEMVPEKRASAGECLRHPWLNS
How it was run: as §1

[25] = molecular target: TAOK1 (Homo sapiens, UniProt Q7L7X3)
How it was run: as §1

C=CC(=O)Nc1cc(-n2c(=O)ccc3cnc4ccc(-n5cccn5)cc4c32)ccc1C [CHMFL-BTK-11] was tested, and the remaining binding at 1 µM [1] was 100%, the remaining binding at 1 µM [2] was 94% and the remaining binding at 1 µM [3] was 100%. For the same molecule, the remaining binding at 1 µM [4] was 91%, the remaining binding at 1 µM [5] was 90% and the remaining binding at 1 µM [6] was 100%. The remaining binding at 1 µM [7] was 100%, the remaining binding at 1 µM [8] was 100% and the remaining binding at 1 µM [9] was 86%. It also gave a remaining binding at 1 µM [10] of 82%, a remaining binding at 1 µM [11] of 100% and a remaining binding at 1 µM [12] of 80%. The remaining binding at 1 µM [13] was 100%, the remaining binding at 1 µM [14] was 100% and the remaining binding at 1 µM [15] was 79%. The remaining binding at 1 µM [16] was 64%, the remaining binding at 1 µM [17] was 100% and the remaining binding at 1 µM [18] was 100%. For the same molecule, the remaining binding at 1 µM [19] was 94%, the remaining binding at 1 µM [20] was 100% and the remaining binding at 1 µM [21] was 100%. It also gave a remaining binding at 1 µM [22] of 100%, a remaining binding at 1 µM [23] of 100% and a remaining binding at 1 µM [24] of 100%. The remaining binding at 1 µM [25] was 100%.

From paper PMC5428509, “Irreversible inhibition of BTK kinase by a novel highly selective inhibitor CHMFL-BTK-11 suppresses inflammatory response in rheumatoid arthritis model” (Scientific Reports, 2017)
